Measurements: PubChem BioAssay (NCI)
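Cells were grown in 96-well plates and exposed to each compound for 48 hours at five concentrations; endpoints were interpolated linearly between bracketing concentrations, or set to the highest concentration if not reached. Definition used: TGI = concentration required for complete inhibition of growth.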

Tests used:
Assay in all cases: growth of human tumour cells (NCI), 48 h
IGROV1 ovarian = tested on: IGROV1 ovarian
MCF7 breast = tested on: MCF7 breast
OVCAR-4 ovarian = tested on: OVCAR-4 ovarian
TK-10 renal = tested on: TK-10 renal

CCC(=O)Nc1ccc(NC(C#N)c2cccc(Oc3ccccc3)c2)cc1 (configuration not stated)
TGI (IGROV1 ovarian): > 100 µM | TGI (MCF7 breast): > 100 µM | TGI (OVCAR-4 ovarian): > 100 µM

NC(=O)Cc1nc2c(N)ncnc2n1C1OC(CO)C(O)C1O (configuration not stated)
TGI (IGROV1 ovarian): > 100 µM | TGI (MCF7 breast): > 100 µM | TGI (OVCAR-4 ovarian): > 100 µM | TGI (TK-10 renal): > 100 µM

CCOC(=O)C1c2[nH]c3ccccc3c2CCN1C(=O)c1ccc(OC)o1 (configuration not stated)
TGI (IGROV1 ovarian): > 10 µM | TGI (MCF7 breast): > 10 µM | TGI (OVCAR-4 ovarian): > 10 µM | TGI (TK-10 renal): > 10 µM

COc1ccc(N2C(=O)C3c4[nH]c5ccc(Br)cc5c4C4CCC(C(C)(C)C)CC4C3C2=O)cc1 (configuration not stated)
TGI (IGROV1 ovarian): > 100 µM | TGI (MCF7 breast): > 100 µM | TGI (OVCAR-4 ovarian): > 100 µM | TGI (TK-10 renal): > 100 µM

CC1(C)OC(=O)N(c2ccccc2)C12C=Cc1cccc([N+](=O)[O-])c1O2 (configuration not stated)
TGI (IGROV1 ovarian): > 100 µM | TGI (MCF7 breast): > 100 µM | TGI (OVCAR-4 ovarian): > 100 µM | TGI (TK-10 renal): > 100 µM

CCCCCCCCCCCCCCCCCCNC(=S)/N=C\C1=C(O)c2ccccc2C1=O
TGI (IGROV1 ovarian): 5.62 µM | TGI (MCF7 breast): 29.5 µM | TGI (TK-10 renal): 30.6 µM

CC1=C(c2ccccc2)NC(=S)C(C)C(c2ccccc2)=N1 (configuration not stated)
TGI (IGROV1 ovarian): > 100 µM | TGI (MCF7 breast): > 100 µM | TGI (OVCAR-4 ovarian): > 100 µM | TGI (TK-10 renal): > 100 µM

COc1ccc(C2SCC(=O)N2NC(=O)c2ccc(NC(C)=O)cc2)c(OC)c1 (configuration not stated)
TGI (IGROV1 ovarian): > 100 µM | TGI (MCF7 breast): > 100 µM | TGI (OVCAR-4 ovarian): > 100 µM | TGI (TK-10 renal): > 100 µM

CC(C)NC(=O)N(Nc1ccccc1)C(C)(C)C
TGI (IGROV1 ovarian): > 100 µM | TGI (MCF7 breast): > 100 µM | TGI (OVCAR-4 ovarian): > 100 µM | TGI (TK-10 renal): > 100 µM

Cc1c2c(c(O)c3c(O)cccc13)C(=O)C1(O)C(O)=C(C(=O)NCNc3ccc(C(N)=O)cn3)C(=O)C(N(C)C)C1C2 (configuration not stated)
TGI (IGROV1 ovarian): 6.27 µM | TGI (MCF7 breast): > 100 µM | TGI (OVCAR-4 ovarian): 5.85 µM | TGI (TK-10 renal): 49.2 µM

CC[C@@]1(C)CCC2c3ccc(O)cc3CC[C@H]2C1C (some centres not stated)
TGI (IGROV1 ovarian): 38.1 µM | TGI (MCF7 breast): 30.3 µM | TGI (OVCAR-4 ovarian): 35.7 µM | TGI (TK-10 renal): 33.3 µM

O=[N+]([O-])C(=C(N1CCOCC1)N1CCOCC1)/C(Cl)=C(\Cl)Br
TGI (OVCAR-4 ovarian): 39.5 µM

Cc1ccc(O)c(C2=CC(c3cccc(Cl)c3)SC(N)=N2)c1 (configuration not stated)
TGI (IGROV1 ovarian): 46.5 µM | TGI (MCF7 breast): > 100 µM | TGI (OVCAR-4 ovarian): 23.6 µM | TGI (TK-10 renal): 51.7 µM

O=C(c1ccccc1)c1ccc2[nH]c(-c3c(Cl)c(Cl)c(Cl)c(Cl)c3C(=O)N/N=C/c3cccc(Oc4ccccc4)c3)nc2c1
TGI (IGROV1 ovarian): > 100 µM | TGI (MCF7 breast): > 100 µM | TGI (OVCAR-4 ovarian): > 100 µM | TGI (TK-10 renal): > 100 µM

CC(=O)O[C@H]1CC[C@@]2(C)C(=CC[C@@H]3[C@@H]2CC[C@]2(C)c4c(C)nn(-c5ccccc5)c4C[C@@H]32)C1
TGI (IGROV1 ovarian): > 100 µM | TGI (MCF7 breast): > 100 µM | TGI (OVCAR-4 ovarian): > 100 µM | TGI (TK-10 renal): 51 µM

[N-]=[N+]=NC(c1cn(C2CC(O)C(CO)O2)c(=O)[nH]c1=O)C(Cl)I (configuration not stated)
TGI (IGROV1 ovarian): > 100 µM | TGI (MCF7 breast): > 100 µM | TGI (OVCAR-4 ovarian): > 100 µM | TGI (TK-10 renal): > 100 µM

CN(C)CCn1c(=O)c2ccc(NCCN3CCNCC3)c3c(=O)c4ccccc4n(c1=O)c23
TGI (IGROV1 ovarian): 12.1 µM | TGI (MCF7 breast): 12.7 µM | TGI (OVCAR-4 ovarian): 32.3 µM | TGI (TK-10 renal): 27.5 µM

NC(=O)NCCCC(NC(=O)OCCCCCCn1ccc(=O)[nH]c1=O)C(=O)O (configuration not stated)
TGI (IGROV1 ovarian): > 100 µM | TGI (MCF7 breast): > 100 µM | TGI (OVCAR-4 ovarian): > 100 µM | TGI (TK-10 renal): > 100 µM
